Assay [1] has as its system patients with intramural myoma, adenomyosis and endometriosis. In words: Uterus volume before and after treatment, 30 patients (plus comparative resveratrol-only patients). The format is in vivo, human. The method, then: An experiment was carried out with 30 patients treated with combinations of drospirenone, ethinyl estradiol and resveratrol, as well as with combinations of gestinol and resveratrol, evaluating the volume of the uterus before and after the treatment. In the comparative studies with three patients A, B and C, showing intramural myoma treated only with resveratrol, there was observed a 32% increase for patient A, treated during 12 months; 27% increase for patient B, treated during 3 months; and 22% increase for patient C, treated during 1 month.

In assay [2] the test system is stromal cells extracted from human endometrium tissue. The assay is described as follows: Antiproliferative activity, MTT colorimetric method. The format is cell-based. On the procedure:
Negative control: stromal cells of endometrioma incubated with 200 μL of culture medium supplemented with 10% fetal bovine serum and 0.1% DMSO. After calculating the concentrations, the test substances were diluted in 100% DMSO, with stock solution concentrations being of 1 mM to ethinyl estradiol and 10 mM to Dienogest, Resveratrol and Danazol. The use solution was obtained by 1:10 serial dilutions in culture medium supplemented with 10% of fetal bovine serum and 1% of antibiotic/antimycotic. The final concentration of DMSO in the solutions was 0.1%. Endometrium tissues were obtained from 2 voluntary donors by means of videolaparoscopy, by signing the respective terms of consent and ages between 18 and 45 years. A fragment was taken from tissue samples for histological confirmation of endometriosis and the remaining was packaged in sterile flask containing culture medium DMEM/Ham's F12 (Gibco®) with ampicillin and streptomycin (Merck®) antibiotics, and they were taken immediately to the laboratory. […] The resulting suspension was centrifuged and re-suspended in culture medium, and it was then transferred to a 25 cm^2 culture bottle. The purity of cell cultures was tested by immunocytochemistry using rabbit anti-human vimentin monoclonal primary antibody (Spring Bioscience TM) and rabbit anti-IgG secondary polyclonal antibody from goat labeled with Texas Red (Invitrogen®). The cells were maintained and amplified in DMEM/Ham's F12 (Gibco®) 10% FBS medium, with […] of antibiotics ampicillin and streptomycin in culture bottle until reaching the sub-confluence (90% of confluence), and then they were transferred to 96-well plates for conducting the tests for assessing antiproliferative activity. Cells were transferred to 96-well plates to a density of 10,000 cells per well in culture medium with 10% of SBF and incubated during 48 hours. […] Then, MTT tetrazolium salt was added (Invitrogen) at a concentration of 1 mg/mL, according to the incubation periods described in the manufacturer's manual. Cell proliferation was indirectly evaluated using the MTT colorimetric method (Invitrogen) and absorbance measurement at 540 nm in SpectraMax M2 plate reader-Molecular Devices with SoftMax […].2 software. By following this procedure, results of antiproliferative activity. of drugs on cells can be obtained. Data were calculated with the ratio of values obtained from cultures exposed (and in different concentrations, combined or not) and cultures not exposed to drugs. The reference of 100% of cell viability, cells cultured without the presence of drugs, was considered.

Each structure is given as a SMILES string.

`Oc1ccc(/C=C/c2cc(O)cc(O)c2)cc1` [Resveratrol, trans-3,5,4″-trihidroxystilbene]: the “increase (intramural myoma, treated only with resveratrol)” value worked out at 32% in assay [1] (patient A, treated during 12 months); 27% in assay [1] (patient B, treated during 3 months); 22% in assay [1] (patient C, treated during 1 month). In addition, the Proliferation in assay [2] (resveratrol alone 1.980 ng/mL, 100% = cells without drugs) came to 94.8%; in assay [2] (resveratrol alone 19.800 ng/mL, 100% = cells without drugs) it was 90.6%; in assay [2] (resveratrol alone 197.970 ng/mL (concentration used in the combination)) it was 94.7%; in assay [2] (resveratrol alone 1979.130 ng/mL), 93.3%; in assay [2] (resveratrol alone 19797.13 ng/mL), 91.1%.

Source of the values: patent publication US20130267485A1, “Pharmaceutical Combination of Resveratrol and Progestin to Treat and/or Prevent Myoma and/or Endometriosis” (LIBBS FARMACEUTICA LTDA., priority 2010, published 2013).
